Assays:
Assay type in all cases: in vitro ADME
[1] = Plasma protein binding (equilibrium dialysis), rat; details: 10 μM, 4 hrs at 37° C.
Protocol: (§1) A 10 mM stock solution of the compound in DMSO was diluted with a factor 5 in DMSO. This solution was further diluted in freshly thawed human, rat, mouse or dog plasma (BioReclamation INC) with a final concentration of 10 μM and final DMSO concentration of 0.5% (5.5 μL in 1094.5 μL plasma in a PP-Masterblock 96 well (Greiner, Cat no. 780285))
(§2) A Pierce Red Device plate with inserts (ThermoScientific, Cat no. 89809) was prepared and filled with 750 μL PBS in the buffer chamber and 500 μL of the spiked plasma in the plasma chamber. The plate was incubated for 4 hrs at 37° C. while shaking at 230 rpm. After incubation, 120 μL of both chambers was transferred to 360 μL acetonitrile in a 96-well round bottom, PP deep-well plates (Nunc, Cat no. 278743) and sealed with an aluminum foil lid. The samples were mixed and placed on ice for 30 min. This plate was then centrifuged 30 min at 1200 rcf at 4° C. and the supernatant was transferred to a 96 v-bottom PP plate (Greiner, 651201) for analysis on LCMS.
(§3) The plate is sealed with sealing mats (MA96RD-04S) of www.kinesis.co.uk and samples are measured at room temperature on LCMS (ZQ 1525 from Waters) under optimized conditions using Quanoptimize to determine the appropriate mass of the molecule.
(§4) The samples were analyzed on LCMS with a flow rate of […]. Solvent A was 15 mM ammonia and solvent B was acetonitrile. The sample was run under positive ion spray on an XBridge C18 3.5 μM (2.1×30 mm) column, from Waters. The solvent gradient has a total run time of 2 minutes and ranges from 5% B to 95% B.
(§5) Peak area from the compound in the buffer chamber and the plasma chamber are considered to be 100% compound.

Caco2 permeability = details: human; for Papp at 1 h, 10 µM: pH 7.4, Caco-2, 10 μM; for efflux ratio at 1 h, 10 µM: Caco-2, pH 7.4, Papp B>A/Papp A>B
Protocol: Bi-directional Caco-2 assays were performed as described below. Caco-2 cells were obtained from European Collection of Cell Cultures (ECACC, cat 86010202) and used after a 21 day cell culture in 24-well Transwell plates (Fisher TKT-545-020B).
2×10^5 cells/well were seeded in plating medium consisting of DMEM+GlutaMAXI+1% NEAA+10% FBS (FetalClone II)+1% Pen/Strep. The medium was changed every 2-3 days.
Test and reference compounds (propranolol and rhodamine123 or vinblastine, all purchased from Sigma) were prepared in Hanks' Balanced Salt Solution containing 25 mM HEPES (pH7.4) and added to either the apical (125 μL) or basolateral (600 μL) chambers of the Transwell plate assembly at a concentration of 10 μM with a final DMSO concentration of 0.25%.
50 μM Lucifer Yellow (Sigma) was added to the donor buffer in all wells to assess integrity of the cell layers by monitoring Lucifer Yellow permeation. As Lucifer Yellow (LY) cannot freely permeate lipophilic barriers, a high degree of LY transport indicates poor integrity of the cell layer.
After a 1 hr incubation at 37° C. while shaking at an orbital shaker at 150 rpm, 70 μL aliquots were taken from both apical (A) and basal (B) chambers and added to 100 μL1 50:50 acetonitrile:water solution containing analytical internal standard (0.5 μM carbamazepine) in a 96 well plate.
Concentrations of compound in the samples were measured by high performance liquid-chromatography/mass spectroscopy (LC-MS/MS).
The Efflux ratios, as an indication of active efflux from the apical cell surface, were calculated using the ratio of Papp B>A/Papp A>B.

[2] = Microsomal stability, human; details: human liver microsomes, 3 μM compound
Protocol: A 10 mM stock solution of compound in DMSO was diluted 1000 fold in a 182 mM phosphate buffer pH7.4 in a 96 deep well plate (Greiner, Cat no. 780285) and pre-incubated at 37° C. 40 μL of deionised water was added to a well of a polypropylene Matrix 2D barcode labelled storage tube (Thermo Scientific) and pre-incubated at 37° C.
A Glucose-6-phophate-dehydrogenase (G6PDH) working stock solution was prepared in 182 mM phosphate buffer pH7.4 and placed on ice before use. A co-factor containing MgCl2, glucose-6-phosphate and NADP+ was prepared in deionised water and placed on ice before use.
A final working solution containing liver microsomes (Xenotech) of a species of interest (human, mouse, rat, dog), previously described G6PDH and co-factors was prepared and this mix was incubated for no longer than 20 minutes at room temperature.
30 μL of the pre-heated compound dilution was added to 40 μL of pre-heated water in the Matrix tubes and 30 μL, of the microsomal mix was added. Final reaction concentrations were 3 μM compound, 1 mg microsomes, 0.4 U/mL GDPDH, 3.3 mM MgCl2, 3.3 mM glucose-6-phosphate and 1.3 mM NADP+.
To measure percentage remaining of compound at time zero MeOH or ACN was added (1:1) to the well before adding the microsomal mix. The plates were sealed with Matrix Sepra Seals™ (Matrix, Cat. No. 4464) and shaken for a few seconds ensure complete mixing of all components.
The samples which were not stopped are incubated at 37° C., 300 rpm and after 1 hr of incubation the reaction was stopped with MeOH or ACN (1:1).
After stopping the reaction the samples were mixed and placed on ice for 30 min to precipitate the proteins. The plates were then centrifuged 30 min at 1200 rcf at 4° C. and the supernatant was transferred to a 96 v-bottom PP plate (Greiner, 651201) for analysis on LCMS.
These plates were sealed with sealing mats (MA96RD-04S) of www.kinesis.co.uk and samples were measured at room temperature on LCMS (ZQ 1525 from Waters) under optimized conditions using Quanoptimize to determine the appropriate mass of the parent molecule.
The samples were analyzed on LCMS with a flow rate of 1 mL/min. Solvent A was 15 mM ammonia and solvent B was methanol or acetonitrile, depending on the stop solution used. The samples were run under positive ion spray on an XBridge C18 […] (2.1×30 mm) column, from Waters.
Peak area from the parent compound at time 0 was considered to be 100% remaining. The percentage remaining after 1 hr incubation was calculated from time 0 and was calculated as the percentage remaining. The solubility of the compound in the final test concentration in buffer is inspected by microscope and results are reported.
The data on microsomal stability are expressed as a percentage of the total amount of compound remaining after 60 min.

[3] = Plasma protein binding (equilibrium dialysis), human; details: 10 μM, 4 hrs at 37° C.
Protocol: as §1, §2, §3, §4, §5

percentage bound to plasma, Rat [1] [%]	Papp at 1 h, 10 µM (Caco2 permeability) [×10⁻⁶ cm/s]	percentage of compound remaining after 60 min, Human [2] [%]	percentage bound to plasma, Human [3] [%]	efflux ratio at 1 h, 10 µM (Caco2 permeability)	SMILES
65.7	3.33	87.2	76.4		O=C(Nc1nc2cccc(-c3ccc(CN4CCS(=O)(=O)CC4)cc3)n2n1)C1CC1 [Compound 1, Cyclopropanecarboxylic acid {5-[4-(1,1-dioxo-1-thiomorpholin-4-ylmethyl)-phenyl]-[1,2,4]triazolo [1,5-a]pyridin-2-yl}-amide]
64.5	25	73	70.5		O=C(Nc1nc2cccc(-c3ccc(CN4CCOCC4)cc3)n2n1)C1CC1 [Compound 2, N-(5-(4-(morpholinomethyl)phenyl)-[1,2,4]triazolo[1,5-a]pyridin-2-yl)cyclopropanecarboxamide]
51	0.05	102		97.6	O=C(Nc1nc2cccc(-c3ccc(C(=O)N4CCS(=O)(=O)CC4)cc3)n2n1)C1CC1 [Compound 10, Cyclopropanecarboxylic acid {5-[4-(1,1-dioxo-1-thiomorpholine-4-carbonyl)-phenyl]-[1,2,4]triazolo [1,5-a]pyridin-2-yl}-amide]
76.5	36.5	51	91.25	0.9	O=C(Nc1nc2cccc(-c3ccc(CN4CCC(F)(F)CC4)cc3)n2n1)C1CC1 [Compound 11, Cyclopropanecarboxylic acid {5-[4-(4,4-difluoro-piperidin-1-ylmethyl)-phenyl]-[1,2,4]triazolo [1,5-a]pyridin-2-yl}-amide]

— patent publication US8563545B2, “Compound useful for the treatment of degenerative and inflammatory diseases” (Galapagos NV, priority 2009, dated 2013)
